Patent US7772425B2, “Vitamin D receptor modulators” (Eli Lilly and Company, priority 2002, dated 2010)
Values joined by “and” are separate entries in the source; they are usually repeats but may differ in a detail not shown here. Equal values may be shown once. Read-outs that look alike come from different tables or passages of the source.

Tests used:
female DBF mice = assay: Mouse hypercalcemia assay; assay type: in vivo; conditions: orally via gavage for 6 days; serum ionized calcium 6 hours after last dosing
Excerpt: 4. The Mouse Hypercalcemia Assay
(4) Materials and Method for The Mouse Hypercalcemia Assay: […]

rat osteocalcin promoter = assay: OCN (osteocalcin) promoter assay in RG-15 (ROS 17/2.8) cells; assay type: cell-based; conditions: 48 hr treatment, luciferase
Outline: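 Rat osteoblast-like RG-15 (ROS 17/2.8) cells stably carrying a luciferase reporter driven by the osteocalcin promoter, treated with compounds in DMSO (0.01% v/v final) in medium with 2% FBS. After 48 hr at 37 °C, cells were lysed and luciferase activity measured.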

IL-10 = assay: human IL-10 induction assay in PBMCs; assay type: cell-based; conditions: TPA/PHA treated human PBMCs, IL-10 immunoassay of supernatant
Excerpt: The evaluation of the novel compounds of the invention for psoriasis is done using the Keratinocyte Proliferation Assay in combination with other assays that measure inhibition of IL-2 production and stimulation of IL-10 production in peripheral blood mononuclear cells (PBMCs).
6. The IL-10 Induction Assay
This is an in vitro efficacy assay for psoriasis, abscess and adhesion. Psoriasis involves both keratinocytes and immune cells. IL-10 is a unique cytokine because it is anti-inflammatory and immunosuppressive. This assay tells us whether a VDRM is able to function as an agonist in PBMCs (primary blood mononuclear cells) or not. A lower EC50 value is desirable in this assay since a compound with a lower EC50 value will be a better agonist in PBMCs.
(6) Materials and Method for human IL-10 Induction Assay:
Isolation of peripheral blood mononuclear cells (PBMCs):
• A. Collect 50 ml of human blood and dilute with media, RPMI-1640. • B. Prepare sterile tubes with ficol. • C. Add diluted blood to tubes. • D. Centrifuge. • E. Discard the top layer and collect the cells from middle layer. • F. Divide all cells into four tubes and add media. • G. Centrifuge. • H. Aspirate off media and resuspend. • I. Collect all cells • J. Centrifuge. at 1200 rpm for 10 minutes. • K. Resuspend in RPMI-1640 with 2% FBS and count cells Stimulation of PBMC: • L. Prepare TPA in DMSO. • M. Dissolve PHA in water. • N. Plate TPA/PHA treated PBMCs in well plates. • O. Incubate. Treatment: • P. Prepare all compound dilutions in plain RPMI-1640 media. • Q. Add diluted compound. • R. Incubate. Sample Collection and assay: • S. Remove all the cells by centrifugation and assay the supernatant for IL-10 by immunoassay. • 1) T. Perform IL-10 assay using anti-human IL-10 antibody coated beads, as described by the manufacturer (Linco Research Inc., St. Charles, Mo.).

[1] = system: KERtr cells (Human skin keratinocyte); assay: Keratinocyte proliferation assay; assay type: cell-based; conditions: BrdU incorporation, read-out: Kera. Prolif. IC50

Compound	Mouse Hypercal (female DBF mice) [µg/kg/day]	EC50 (rat osteocalcin promoter)	IC50 (IL-10) [nM]	IC50 ([1]; 72 hr) [nM]	IC50 (IL-10; Homo sapiens, PBMC) [nM]	IC50 ([1]; Homo sapiens, Keratinocyte, 72 h) [nM]
CCC(CC)(c1ccc(CC2SC(=O)NC2=O)c(C)c1)c1ccc(OCC(O)C(C)(C)C)c(C)c1 (single isomer, unassigned) [Ex. 50, 5-(4-{1-ethyl-1-[4-(2-hydroxy-3,3-dimethyl-butoxy)-3-methyl-phenyl]-propyl}-2-methyl-benzyl)-thiazolidine-2,4-dione]	300	0.2 nM	4	3		
CCC(CC)(c1ccc(-c2nnn[nH]2)cc1)c1ccc(OCC(O)C(C)(C)C)c(C)c1 (single isomer, unassigned) [Ex. 45, 1-(4-{1-Ethyl-1-[4-(1H-tetrazol-5-yl)-phenyl]-propyl}-2-methyl-phenoxy)-3,3-dimethyl-butan-2-ol]	300	0.7 nM	15	32		
CCC(CC)(c1ccc(OC(C)C(O)C(C)(C)C)c(C)c1)c1ccc(C(=O)N(C)CC(=O)O)c(C)c1 (single isomer, unassigned) [Ex. 52, [(4-{1-Ethyl-1-[4-(2-hydroxy-1,3,3-trimethyl-butoxy)-3-methyl-phenyl]-propyl}-2-methyl-benzoyl)-methyl-amino]-acetic acid]	>3000	4 nM		52	154	
CCC(CC)(c1ccc(C(=O)O)cc1)c1ccc(OCC(O)C(C)(C)C)c(Cl)c1 (single isomer, unassigned) [Ex. 37, 3′-[3-chloro-4-(2-hydroxy-3,3-dimethylbutoxy)phenyl]-3′-[4-carboxyphenyl]pentane]	1000	12 nM		55	229	
CCC(CC)(c1ccc(OC(C)C(O)C(C)(C)C)c(C)c1)c1ccc(C(=O)N[C@H](C)C(=O)O)c(C)c1 (some centres unmarked) [Ex. 46, (D)-2-(4-{1-ethyl-1-[4-(2-hydroxy-1,3,3-trimethyl-butoxy)-3-methyl-phenyl]-propyl}-2-methyl-benzoylamino)-propionic acid]	3000	2 nM and 3 nM		21	33	
CCC(CC)(c1ccc(-c2nnn[nH]2)cc1)c1ccc(OCC(O)C(C)(C)C)c(C)c1 (single isomer, unassigned) [Ex. 44, 1-(4-{1-Ethyl-1-[4-(1H-tetrazol-5-yl)-phenyl]-propyl}-2-methyl-phenoxy)-3,3-dimethyl-butan-2-ol]	<300	0.1 nM	6			28
CCC(CC)(c1ccc(OCC(O)C(C)(C)C)c(C)c1)c1ccc(C(=O)Nc2nnn[nH]2)c(C)c1 (single isomer, unassigned) [Ex. 26, 3′-[4-(2-hydroxy-3,3-dimethylbutoxy)-3-methylphenyl]-3′-[4-(tetrazol-5-ylaminocarbonyl)-3-methylphenyl]pentane]	300	1 nM	52	4		
CCC(CC)(c1ccc(OCC(O)C(C)(C)C)c(C)c1)c1ccc(C(=O)NCC(=O)O)c(C)c1 (single isomer, unassigned) [Ex. 25B, (4-{1-ethyl-1-[4-(2-hydroxy-3,3-dimethylbutoxy)-3-methylphenyl]-propyl}-2-methylbenzoylamino)acetic acid]	1000	2 nM and 3 nM	158	26		
